From patent publication US8506947B2 (priority 1999, dated 2013)
Read-outs that look alike come from different tables or passages of the source.

Legend:
melanoma cells = settings: after antibody-β-lactamase conjugate; cited from earlier work
[1] = system: subcutaneous tumors (glioma-breast cancer) retrovirally transduced with CYP2B1; settings: single IP injection of cyclophosphamide; cited from earlier work
glioma cells = settings: cited from earlier work
[2] = system: transduced sarcoma cell line; settings: cited from earlier work
sarcoma cells = settings: gpt gene retrovirally transduced; cited from earlier work
hepatic metastases = settings: cited from earlier work
intracerebral gliomas = settings: adenovirus carrying HSV-TK intratumorally, IP GCV twice daily for 6 days; cited from earlier work
[3] = system: Murine colon adenocarcinoma cells (MC38 cells); type: cell-based

## COc1cccc2c1C(=O)c1c(O)c3c(c(O)c1C2=O)C[C@@](O)(C(=O)CO)C[C@@H]3O[C@H]1C[C@H](NC(=O)OCC2=C(C(=O)O)N3C(=O)[C@@H](NC(=O)Cc4ccccc4)[C@H]3SC2)[C@H](O)[C@H](C)O1 [C-Dox, cephalosporin-doxorubicin]
Melanoma cells
  increase in the sensitivity of cells to the prodrugs: 4 fold

## O=P1(N(CCCl)CCCl)NCCCO1 (stereo not shown) [cyclophosphamide]
[1]
  complete inhibition of tumors, share of animals: 95%

## O=c1[nH]c(=S)c2[nH]cnc2[nH]1 [6-TX, 6-thioxanthine]
Glioma cells; glioma cells transduced with gpt
  LD50: 2.5 µmol/L
Glioma cells; untransfected cells at 50 umol/L
  sensitivity of untransfected cells: minimally sensitive
[2]; 5 days of treatment with 6-TX
  treatment mortality due to toxicity of the converted prodrug: 10%
[2]; after 5 days of treatment with 6-TX
  complete regression, share of the animals: 95%
Sarcoma cells
  increased sensitivity: 86 fold

## Cc1ncnc2c1ncn2[C@H]1C[C@H](O)[C@@H](CO)O1 [6-MPDR, 6-methylpurine deoxyriboside]
Hepatic metastases; every other daily injections of 6-MPDR
  cure rate: 50%
Hepatic metastases; weekly injections of 6-MPDR
  cure rate: 30%

## Nc1nc(O)c2ncn(COC(CO)CO)c2n1 [GCV, Gancyclovir]
Intracerebral gliomas
  complete regressions: 2
  decrease in tumor size compared to controls: 23 fold

## Nc1nc(=O)[nH]cc1F [5-FC, 5-fluorocytosine]
[3]
  cells killed as a result of the 5-FC exposure: ~100%
  effect of the 5-FC exposure on cells: not affected
